These are literature values, as cited in US20050158380A1, “Sustained release oral dosage forms of gabapentin” (priority 2002, published 2005).

The conditions of the series: in vivo.

As a reminder, the half-life is how long it takes for the measured level to halve. `NCC1(CC(=O)O)CCCCC1` [Gabapentin, 1-(aminomethyl)cyclohexaneacetic acid]: the half-life was 5 to 7 h.
